Common to all, as to assay type: cell-based
For experiment [1], the system named is A549 (human lung adenocarcinoma). Briefly: cytotoxic MTS test, A549. The note with it: A549 cells. An excerpt: (§1) To evaluate the antitumor activity of newly prepared compounds for in vitro conditions, we used cytotoxic MTS test (Nosková V. et al., Neoplasma 2002, 49, 418-425) on cell lines derived from normal tissues or tumors. Specifically, cell lines K562 (human acute myeloid leukemia); K562-Tax (human acute myeloid leukemia, paclitaxel resistant subline, overexpress multiple drug resistant protein PgP); CEM (T-lymfoblastic leukemia); CEM-DNR-bulk (T-lymfoblastic leukemia, doxorubicin resistant); A549 (human lung adenocarcinoma); HCT116p53 wt (human colorectal cancer, wild-type); HCT116p53−/−(human colorectal cancer, mutant p53) a U2OS (human bone osteosarcoma) were used. Express characteristics, susceptibility profiles of classic antitumor drugs as well as methodology of cytotoxic MTS test have been repeatedly published (Denizot, F.; Lang, R., J. Immunol. Meth. 1986, 89, 271-277; Noskova, V., see above; Šarek J. et al., J, Med. Chem., 2003, 46, 5402-5415).
Background: Tetrazolium assays rely on reduction of a dye to a coloured formazan, in cell work by metabolically active cells.

Experiment [2] deals with BJ (normal human fibroblasts). Briefly: cytotoxic MTS test, BJ. The note with it: BJ cells.
Another experiment concerns CCRF-CEM. Briefly: cytotoxic MTS test, CCRF-CEM. The note with it: Homo sapiens; CCRF-CEM cells.
Excerpt: as §1

The subject of experiment [3] is CEM-DNR-bulk (T-lymfoblastic leukemia, doxorubicin resistant). Briefly: cytotoxic MTS test, CEM-DNR. The note with it: Homo sapiens; CEM-DNR cells.
Excerpt: as §1

Experiment [4] concerns HCT116p53 wt (human colorectal cancer, wild-type). Briefly: cytotoxic MTS test, HCT116. The note with it: HCT-116, HCT116 cells.
Excerpt: as §1

Experiment [5] relates to HCT116p53−/− (human colorectal cancer, mutant p53). Briefly: cytotoxic MTS test, HCT116p53. The note with it: HCT116p53 cells.
Excerpt: as §1

Experiment [6] relates to K562 (human acute myeloid leukemia). Briefly: cytotoxic MTS test, K562. The note with it: K562 cells.
Excerpt: as §1

Experiment [7] deals with K562-Tax (human acute myeloid leukemia, paclitaxel resistant subline). Briefly: cytotoxic MTS test, K562-TAX. The note with it: K562-TAX cells.
Excerpt: as §1

Experiment [8] relates to MRC-5 (normal human fibroblasts). Briefly: cytotoxic MTS test, MRC-5. The note with it: MRC5, MRC-5 cells.
Experiment [9] has as its system U2OS (human bone osteosarcoma). Briefly: cytotoxic MTS test, U2OS. The note with it: U2OS cells.
Excerpt: as §1

A further experiment relates to Hep G2. Briefly: cytotoxic MTS test, Hep G2. The note with it: Homo sapiens, HepG2; Hep G2 cells.
For a further experiment, the system named is HL 60. Briefly: cytotoxic MTS test, HL 60. The note with it: Homo sapiens; HL 60 cells.
Experiment [10] has as its system CEM (T-lymfoblastic leukemia). Briefly: cytotoxic MTS test, CEM. The note with it: Homo sapiens, CCRF-CEM; CEM cells.
Excerpt: as §1

A further experiment deals with HeLa. Briefly: cytotoxic MTS test, HeLa. The note with it: Homo sapiens; HeLa cells.

This is an account of results in patent US11299510B2, “Substituted pyridopyrrolopyrimidine ribonucleosides for therapeutic uses” (USTAV ORGANICKE CHEMIE A BIOCHEMIE AV CR, V.V.I., priority 2018, dated 2022).

For orientation: IC50 means the point on the concentration scale where inhibition reaches its midpoint. A low value points to greater potency.

On to `COc1ncnc2c1c1ncccc1n2[C@@H]1O[C@H](CO)[C@@H](O)[C@H]1O` [Compound 1a, 4-methoxy-9-(β-D-ribofuranosyl)-9H-pyrido[2′,3′:4,5]pyrrolo[2,3-d]pyrimidine], for which the IC50 (in experiment [1]; in experiment [2]; in the experiment with CCRF-CEM; in experiment [3]; in experiment [4]; in [5]) was above 50 µM throughout. In addition, the half-inhibitory concentration (IC50) (in [6]; in experiment [7]; in experiment [8]; in experiment [9]; in the experiment with Hep G2; in the experiment with HL 60) was above 50 µM throughout. Also, the IC50 (in experiment [10]; in the experiment with HeLa) was above 50 µM throughout.

As to `CSc1ncnc2c1c1ncccc1n2[C@@H]1O[C@H](CO)[C@@H](O)[C@H]1O` [Compound 1b, 4-(methylsulfanyl)-9-(β-D-ribofuranosyl)-9H-pyrido[2′,3′:4,5]pyrrolo[2,3-d]pyrimidine], the half-maximal inhibitory concentration (IC50) (in experiment [1]; in [2]; with CCRF-CEM; in experiment [3]; in [4]; in experiment [5]) was above 50 µM throughout. For the same compound, the IC50 (in experiment [6]; in experiment [7]; in experiment [8]; in [9]; with Hep G2; in the experiment with HL 60) was above 50 µM throughout. Further, the IC50 (in experiment [10]; with HeLa) was above 50 µM throughout.

Turning to `Nc1ncnc2c1c1ncccc1n2[C@@H]1O[C@H](CO)[C@@H](O)[C@H]1O` [Compound 1c, 4-amino-9-(β-D-ribofuranosyl)-9H-pyrido[2′,3′:4,5]pyrrolo[2,3-d]pyrimidine], the IC50 is above 50 µM in [1]; 0.9 to 10 µM in experiment [2]; 0.2 to 0.9 µM in the experiment with CCRF-CEM; above 50 µM in experiment [3]; 25 to 50 µM in experiment [4]; 25 to 50 µM in [5]. Also, the half-maximal inhibitory concentration (IC50) in experiment [6] was 25 to 50 µM; in experiment [7] it was above 50 µM; in [8] it was above 50 µM; in [9], 0.9 to 10 µM; in the experiment with Hep G2, 0.9 to 10 µM; with HL 60 it was 0.2 to 0.9 µM. For the same compound, the IC50 (in experiment [10]; in the experiment on HeLa) was above 50 µM throughout.

In the case of `Cc1ncnc2c1c1ncccc1n2[C@@H]1O[C@H](CO)[C@@H](O)[C@H]1O` [Compound 1d, 4-methyl-9-(β-D-ribofuranosyl)-9H-pyrido[2′,3′:4,5]pyrrolo[2,3-d]pyrimidine], the 50% inhibitory concentration (IC50) in [1] is above 50 µM; in experiment [2] it was above 50 µM; in the experiment with CCRF-CEM, 0.2 to 0.9 µM; in experiment [3], above 50 µM; in experiment [4] it was above 50 µM; in experiment [5], above 50 µM. Besides, the concentration for half-maximal inhibition (IC50) in [6] was 10 to 25 µM; in experiment [7], above 50 µM; in experiment [8], above 50 µM; in [9] it was 0.9 to 10 µM; in the experiment on Hep G2 it was above 50 µM; in the experiment on HL 60, above 50 µM. In addition, the IC50 (in experiment [10]; in the experiment on HeLa) was above 50 µM throughout.

On to `CN(C)c1ncnc2c1c1ncccc1n2[C@@H]1O[C@H](CO)[C@@H](O)[C@H]1O` [Compound 1e, 4-(dimethylamino)-9-(β-D-ribofuranosyl)-9H-pyrido[2′,3′:4,5]pyrrolo[2,3-d]pyrimidine], for which the IC50 (in experiment [1]; in experiment [2]; in the experiment with CCRF-CEM; in experiment [3]; in [4]; in experiment [5]) was above 50 µM each time. For the same compound, the 50% inhibitory concentration (IC50) (in [6]; in experiment [7]; in experiment [8]; in experiment [9]; in the experiment on Hep G2; in the experiment with HL 60) was above 50 µM throughout. Also, the 50% inhibitory concentration (IC50) (in experiment [10]; with HeLa) was above 50 µM throughout.

In the case of `OC[C@H]1O[C@@H](n2c3cccnc3c3c(-c4ccco4)ncnc32)[C@H](O)[C@@H]1O` [Compound 1f, 4-(furan-2-yl)-9-(β-D-ribofuranosyl)-9H-pyrido[2′,3′:4,5]pyrrolo[2,3-d]pyrimidine], the 50% inhibitory concentration (IC50) (in [1]; in experiment [2]; in the experiment on CCRF-CEM; in experiment [3]; in experiment [4]; in experiment [5]) was above 50 µM each time. The IC50 (in experiment [6]; in experiment [7]; in experiment [8]; in experiment [9]; in the experiment on Hep G2; with HL 60) was above 50 µM in each case. Further, the 50% inhibitory concentration (IC50) (in experiment [10]; in the experiment with HeLa) was above 50 µM throughout.

For the compound `OC[C@H]1O[C@@H](n2c3cccnc3c3c(-c4ccoc4)ncnc32)[C@H](O)[C@@H]1O` [Compound 1g, 4-(furan-3-yl)-9-(β-D-ribofuranosyl)-9H-pyrido[2′,3′:4,5]pyrrolo[2,3-d]pyrimidine], the IC50 (in [1]; in [2]; in the experiment with CCRF-CEM; in experiment [3]; in [4]; in experiment [5]) was above 50 µM throughout. In addition, the half-maximal inhibitory concentration (IC50) (in experiment [6]; in [7]; in experiment [8]; in experiment [9]; with Hep G2; with HL 60) was above 50 µM in each case. The concentration for half-maximal inhibition (IC50) (in experiment [10]; in the experiment with HeLa) was above 50 µM throughout.

For `OC[C@H]1O[C@@H](n2c3cccnc3c3c(-c4ccsc4)ncnc32)[C@H](O)[C@@H]1O` [Compound 1h, 4-(thiophen-3-yl)-9-(β-D-ribofuranosyl)-9H-pyrido[2′,3′:4,5]pyrrolo[2,3-d]pyrimidine], the half-inhibitory concentration (IC50) (in [1]; in experiment [2]; with CCRF-CEM; in experiment [3]; in experiment [4]; in [5]) was above 50 µM in each case. Further, the half-inhibitory concentration (IC50) (in experiment [6]; in experiment [7]; in experiment [8]; in [9]; in the experiment with Hep G2; with HL 60) was above 50 µM in each case. The IC50 (in experiment [10]; in the experiment on HeLa) was above 50 µM throughout.

As for `OC[C@H]1O[C@@H](n2c3cccnc3c3c(-c4cc5ccccc5o4)ncnc32)[C@H](O)[C@@H]1O` [Compound 1i, 4-(benzofuran-2-yl)-9-(β-D-ribofuranosyl)-9H-pyrido[2′,3′:4,5]pyrrolo[2,3-d]pyrimidine], the IC50 is above 50 µM in [1]; above 50 µM in [2]; 10 to 25 µM with CCRF-CEM; above 50 µM in experiment [3]; above 50 µM in experiment [4]; above 50 µM in experiment [5]. Moreover, the IC50 (in experiment [6]; in experiment [7]; in experiment [8]; in [9]; in the experiment with Hep G2; in the experiment with HL 60) was above 50 µM throughout. Moreover, the IC50 (in [10]; in the experiment on HeLa) was above 50 µM throughout.

Consider `COc1ncnc2c1c1ccncc1n2[C@@H]1O[C@H](CO)[C@@H](O)[C@H]1O` [Compound 2a, 4-methoxy-9-(β-D-ribofuranosyl)-9H-pyrido[4′,3′:4,5]pyrrolo[2,3-d]pyrimidine], for which the half-inhibitory concentration (IC50) was above 50 µM in [1]; above 50 µM in experiment [2]; 0.2 to 0.9 µM with CCRF-CEM; 0.9 to 10 µM in [3]; 0.9 to 10 µM in experiment [4]; 0.9 to 10 µM in experiment [5]. In addition, the half-maximal inhibitory concentration (IC50) in [6] is 0.9 to 10 µM; in experiment [7], 0.9 to 10 µM; in experiment [8], above 50 µM; in [9], 0.9 to 10 µM; in the experiment on Hep G2, 0.9 to 10 µM; with HL 60 it was 0.2 to 0.9 µM. Further, the IC50 (in [10]; in the experiment with HeLa) was 0.9 to 10 µM throughout.

As to `CSc1ncnc2c1c1ccncc1n2[C@@H]1O[C@H](CO)[C@@H](O)[C@H]1O` [Compound 2b, 4-(methylsulfanyl)-9-(β-D-ribofuranosyl)-9H-pyrido[4′,3′:4,5]pyrrolo[2,3-d]pyrimidine], the concentration for half-maximal inhibition (IC50) in [1] was 10 to 25 µM; in experiment [2], above 50 µM; in the experiment on CCRF-CEM, 0.2 to 0.9 µM; in experiment [3], 0.9 to 10 µM; in [4], 0.2 to 0.9 µM; in experiment [5], 0.2 to 0.9 µM. Besides, the IC50 in experiment [6] was 0.2 to 0.9 µM; in experiment [7], 0.9 to 10 µM; in [8], above 50 µM; in [9], 0.2 to 0.9 µM; in the experiment with Hep G2, 0.9 to 10 µM; with HL 60, 0.2 to 0.9 µM. The figures for the concentration for half-maximal inhibition (IC50) (in experiment [10]; in the experiment on HeLa) were 0.2 to 0.9 µM and 0.9 to 10 µM, respectively.
